In this assay the test system is P388 leukemia ip, CD2F1 mice, survival T/C. Description: NCI In Vivo Anticancer Drug Screen. Data for tumor model P388 Leukemia (intraperitoneal) in CD2F1 (CDF1) mice. As to conditions: endpoint: median survival time, higher = longer survival. Put shortly: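 Mice carrying the transplanted tumor received test compound or vehicle. Survival was recorded in each group, and the value is the treated-group measurement divided by that of the vehicle-treated control group.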

[1] abbreviates: dose: 50.0 mg/kg/injection, schedule: Q01DX009 (ip), vehicle: Klucel (hydroxypropylcellulose) (HPC).
Where [2] appears, read: dose: 50.0 mg/kg/injection, schedule: Q01DX009 (ip), vehicle: saline.
The mark [3] stands for this setting: dose: 100.0 mg/kg/injection, schedule: Q01DX009 (ip), vehicle: Klucel (hydroxypropylcellulose) (HPC).
The mark [4] stands for this setting: dose: 100.0 mg/kg/injection, schedule: Q01DX009 (ip), vehicle: saline.
Setting [5] is: dose: 200.0 mg/kg/injection, schedule: Q01DX009 (ip), vehicle: Klucel (hydroxypropylcellulose) (HPC).
Where [6] appears, read: dose: 200.0 mg/kg/injection, schedule: Q01DX009 (ip), vehicle: saline.
Where [7] appears, read: dose: 60.0 mg/kg/injection, schedule: Q01DX005 (ip), vehicle: saline with Tween-80.
Where [8] appears, read: dose: 120.0 mg/kg/injection, schedule: Q01DX005 (ip), vehicle: saline with Tween-80.
[9] abbreviates: dose: 50.0 mg/kg/injection, schedule: Q01DX005 (ip), vehicle: saline with Tween-80.
[10] abbreviates: dose: 100.0 mg/kg/injection, schedule: Q01DX005 (ip), vehicle: saline with Tween-80.
The mark [11] stands for this setting: dose: 200.0 mg/kg/injection, schedule: Q01DX005 (ip), vehicle: saline with Tween-80.

From PubChem BioAssay AID330 (DTP/NCI, 2004) come the findings set out here.

Several values for one entry are separate records, joined by “and”; a condition that tells them apart may be missing. Identical values can stand only once. Inconclusive results and toxic doses are left out.

With `COc1ccc2c(c1O)-c1cccc3c1[C@@H](C2)N(CCCl)CC3`, the T/C was 101 % of control and 105 % of control (dose: 1.0 mg/kg/injection, schedule: Q01DX009 (ip), vehicle: Klucel (hydroxypropylcellulose) (HPC)); 99 % of control and 101 % of control (dose: 2.0 mg/kg/injection, schedule: Q01DX009 (ip), vehicle: Klucel (hydroxypropylcellulose) (HPC)); 106 % of control and 113 % of control (dose: 4.0 mg/kg/injection, schedule: Q01DX009 (ip), vehicle: Klucel (hydroxypropylcellulose) (HPC)); 151 % of control (dose: 4.0 mg/kg/injection, schedule: Q01DX009 (ip), vehicle: saline); 104 % of control and 118 % of control (dose: 6.25 mg/kg/injection, schedule: Q04DX003 (ip), vehicle: other); 106 % of control (dose: 8.0 mg/kg/injection, schedule: Q01DX009 (ip), vehicle: Klucel (hydroxypropylcellulose) (HPC)). Moreover, the T/C is 114 % of control and 120 % of control (dose: 8.0 mg/kg/injection, schedule: Q01DX009 (ip), vehicle: saline); 90 % of control (dose: 12.5 mg/kg/injection, schedule: Q04DX003 (ip), vehicle: other); 116 % of control (dose: 25.0 mg/kg/injection, schedule: Q04DX003 (ip), vehicle: other).
`CC1(C)NC(=O)N(Cc2ccccc2)C1=O`: the T/C is, setting by setting: under setting [1], 102 % of control; under setting [2], 108 % of control; under setting [3], 101 % of control; under setting [4], 108 % of control; under setting [5], 102 % of control; under setting [6], 104 % of control.
Regarding `COc1cccc2c1C(=O)c1c(O)c3c(c(O)c1C2=O)C[C@@](O)(/C(CO)=N/NS(=O)(=O)c1ccc(C)cc1)C[C@@H]3OC1CC(N)C(O)C(C)O1` (stereo partly specified), the T/C was 105 % of control (dose: 0.2 mg/kg/injection, schedule: Q01DX009 (ip), vehicle: water); 112 % of control (dose: 0.39 mg/kg/injection, schedule: Q01DX009 (ip), vehicle: water); 94 % of control (dose: 0.78 mg/kg/injection, schedule: Q01DX009 (ip), vehicle: water); 116 % of control and 118 % of control (dose: 1.56 mg/kg/injection, schedule: Q01DX009 (ip), vehicle: water).
For `CC(=O)NC(Cc1cc(I)c(OC(C)=O)c(I)c1)C(C)=O` (stereo unspecified), the T/C under setting [1] is 101 % of control, the T/C under setting [3] was 100 % of control and the T/C under setting [5] was 98 % of control.
Regarding `C[N+]1([O-])CC[N+](C)([O-])CC1` (stereo unspecified), the T/C (dose: 60.0 mg/kg/injection, schedule: Q01DX005 (ip), vehicle: saline) was 103 % of control; the T/C (dose: 120.0 mg/kg/injection, schedule: Q01DX005 (ip), vehicle: saline) was 96 % of control; the T/C (dose: 240.0 mg/kg/injection, schedule: Q01DX005 (ip), vehicle: saline) is 100 % of control.
As to `Cc1ccnc(NS(=O)(=O)c2ccc(N=Cc3c4ccccc4nc4cc(Cl)ccc34)cc2)n1`, the T/C is, setting by setting: under setting [7], 96 % of control; under setting [8], 93 % of control; (dose: 240.0 mg/kg/injection, schedule: Q01DX005 (ip), vehicle: saline with Tween-80) 96 % of control.
For `Cn1c(=O)c2c(Nc3ccccc3)ncnc2n(C)c1=O`, the T/C is 87 % of control (dose: 35.0 mg/kg/injection, schedule: Q01DX005 (ip), vehicle: saline with Tween-80) and 87 % of control (dose: 70.0 mg/kg/injection, schedule: Q01DX005 (ip), vehicle: saline with Tween-80).
Turning to `O=C(OCc1ccccc1)N1C[C@@H](O)[C@H](Br)[C@H]1Cc1ccccc1`, the T/C is 103 % of control (dose: 100.0 mg/kg/injection, schedule: Q01DX001 (ip), vehicle: distilled water + alcohol); 100 % of control (dose: 200.0 mg/kg/injection, schedule: Q01DX001 (ip), vehicle: distilled water + alcohol); 97 % of control (dose: 400.0 mg/kg/injection, schedule: Q01DX001 (ip), vehicle: distilled water + alcohol).
As for `O=C(c1ccc(Br)cc1)c1cnc2nc(-c3ccccc3)c(-c3ccccc3)nn12`, the T/C reads like this: under setting [9], 91 % of control; under setting [10], 96 % of control; under setting [11], 96 % of control.
On to `COC(=O)c1c(COC(=O)NC(C)C)c2n(c1C)CS(=O)(=O)C2`, for which the T/C reads like this: (dose: 12.5 mg/kg/injection, schedule: Q01DX005 (ip), vehicle: saline with Tween-80) 96 % of control; (dose: 25.0 mg/kg/injection, schedule: Q01DX005 (ip), vehicle: saline with Tween-80) 95 % of control; under setting [9], 92 % of control.
As for `COCCC(=NC(C)(C)C)Nc1ccccc1Cl`, the T/C is, setting by setting: under setting [2], 114 % of control; under setting [4], 113 % of control; under setting [6], 102 % of control.
In the case of `Nc1cccc2c1C(O)c1ccccc1-2` (stereo unspecified), the T/C by setting is: under setting [9], 95 % of control; under setting [10], 99 % of control; under setting [11], 90 % of control.
With `C[C@H](CSC(=O)c1ccccc1)C(=O)N1c2ccccc2C[C@H]1C(=O)O`, the T/C reads like this: (dose: 60.0 mg/kg/injection, schedule: Q01DX005 (ip), vehicle: saline + Tween-80 + alcohol) 102 % of control; (dose: 120.0 mg/kg/injection, schedule: Q01DX005 (ip), vehicle: saline + Tween-80 + alcohol) 102 % of control; (dose: 240.0 mg/kg/injection, schedule: Q01DX005 (ip), vehicle: saline + Tween-80 + alcohol) 104 % of control.
Regarding `O=C(Cn1cnc2ccc([N+](=O)[O-])cc21)N1CCN(c2ccccc2)CC1`, the T/C is 93 % of control under setting [7] and 93 % of control under setting [8].
On to `NC(=S)N/N=C\c1ncccc1OCc1cccc(N)c1`, for which the T/C (dose: 12.5 mg/kg/injection, schedule: Q01DX009 (ip), vehicle: distilled water + Tween-80) was 122 % of control; the T/C (dose: 12.5 mg/kg/injection, schedule: Q01DX009 (ip), vehicle: other) is 111 % of control; the T/C (dose: 25.0 mg/kg/injection, schedule: Q01DX009 (ip), vehicle: other) is 120 % of control and 124 % of control; the T/C (dose: 200.0 mg/kg/injection, schedule: Q01DX009 (ip), vehicle: distilled water + Tween-80) is 116 % of control; the T/C (dose: 200.0 mg/kg/injection, schedule: Q01DX009 (ip), vehicle: other) was 152 % of control; the T/C (dose: 400.0 mg/kg/injection, schedule: Q01DX009 (ip), vehicle: distilled water + Tween-80) is 100 % of control.
For the molecule `CCOP(O)(=S)OCC.[Nd]`, the T/C reads like this: (dose: 100.0 mg/kg/injection, schedule: Q01DX001 (ip), vehicle: Klucel (hydroxypropylcellulose) (HPC)) 89 % of control; (dose: 200.0 mg/kg/injection, schedule: Q01DX001 (ip), vehicle: Klucel (hydroxypropylcellulose) (HPC)) 91 % of control; (dose: 400.0 mg/kg/injection, schedule: Q01DX001 (ip), vehicle: Klucel (hydroxypropylcellulose) (HPC)) 99 % of control.
On to `COc1cc2cc(c1Cl)N(C)C(=O)CC(OC(=O)C(C)N(C)C(=O)C(C)C)C1(C)OC1C(C)C1CC(O)(NC(=O)O1)C(OC)/C=C/C=C(C)C2OC` (stereo unspecified), for which the T/C was 157 % of control and 163 % of control (dose: 4.0 micrograms/kg/injection, schedule: Q01DX009 (ip), vehicle: Klucel (hydroxypropylcellulose) (HPC)); 108 % of control (dose: 4.0 micrograms/kg/injection, schedule: Q01DX009 (ip), vehicle: distilled water + alcohol); 168 % of control (dose: 8.0 micrograms/kg/injection, schedule: Q01DX009 (ip), vehicle: Klucel (hydroxypropylcellulose) (HPC)); 108 % of control and 115 % of control (dose: 8.0 micrograms/kg/injection, schedule: Q01DX009 (ip), vehicle: distilled water + alcohol); 157 % of control (dose: 15.5 micrograms/kg/injection, schedule: Q01DX009 (ip), vehicle: none); 154 % of control (dose: 16.0 micrograms/kg/injection, schedule: Q01DX009 (ip), vehicle: Klucel (hydroxypropylcellulose) (HPC)). Besides, the T/C (dose: 16.0 micrograms/kg/injection, schedule: Q01DX009 (ip), vehicle: distilled water + alcohol) is 100 % of control and 123 % of control; the T/C (dose: 31.0 micrograms/kg/injection, schedule: Q01DX009 (ip), vehicle: none) was 150 % of control; the T/C (dose: 32.0 micrograms/kg/injection, schedule: Q01DX009 (ip), vehicle: distilled water + alcohol) was 100 % of control; the T/C (dose: 64.0 micrograms/kg/injection, schedule: Q01DX009 (ip), vehicle: Klucel (hydroxypropylcellulose) (HPC)) was 91 % of control; the T/C (dose: 64.0 micrograms/kg/injection, schedule: Q01DX009 (ip), vehicle: distilled water + alcohol) was 100 % of control; the T/C (dose: 128.0 micrograms/kg/injection, schedule: Q01DX009 (ip), vehicle: distilled water + alcohol) is 106 % of control.
